Measured values from the supplement of paper PMC6045584.
± gives the standard deviation of the averaged measurements.

Tests used:
[1] = compound: C[C@@H]1CN(CC(=O)Nc2ccc3c(c2)Cc2cccc(-c4cc(=O)cc(N5CCOCC5)o4)c2S3)C[C@H](C)O1; assay: surviving fraction relative to DMSO-only wells; higher = less growth inhibition; details: exposure time: 5 days
Method in brief: (§1)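 Tumour cell lines in log phase were plated in 384-well plates at 250–500 cells per well, then, after 24 hours, exposed continuously for five days to inhibitors at 0.5, 1, 5, 10, 50, 100, 500 and 1000 nM. Viability came from CellTiter-Glo luminescence, and surviving fraction is that signal normalised to the median of DMSO-only wells. Plates were read after 10 minutes at room temperature, and each line, screened three times, was kept only when replicate Pearson r was >0.7 and median Z' was >0.3.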

BLEOMYCIN = compound: Cc1c(N)nc([C@H](CC(N)=O)NC[C@H](N)C(N)=O)nc1C(=O)N[C@H](C(=O)N[C@H](C)[C@@H](O)[C@H](C)C(=O)N[C@H](C(=O)NCCc1nc(-c2nc(C(=O)NCCC[S+](C)C)cs2)cs1)[C@@H](C)O)[C@@H](OC1OC(CO)C(O)C(O)C1OC1OC(CO)C(O)C(OC(N)=O)C1O)c1cnc[nH]1 [BLEOMYCIN]; assay: as above; details: exposure time: 5 days
Method in brief: as §1

Test System | surviving fraction ([1]; 0.5 nM) | surviving fraction ([1]; 1 nM) | surviving fraction ([1]; 5 nM) | surviving fraction ([1]; 10 nM) | surviving fraction ([1]; 50 nM) | surviving fraction ([1]; 100 nM) | surviving fraction ([1]; 500 nM) | surviving fraction ([1]; 1000 nM) | surviving fraction (BLEOMYCIN; 0.5 nM) | surviving fraction (BLEOMYCIN; 1 nM) | surviving fraction (BLEOMYCIN; 5 nM) | surviving fraction (BLEOMYCIN; 10 nM) | surviving fraction (BLEOMYCIN; 50 nM) | surviving fraction (BLEOMYCIN; 100 nM) | surviving fraction (BLEOMYCIN; 500 nM) | surviving fraction (BLEOMYCIN; 1000 nM)
HCC1395 BREAST | 0.955 ± 0.14 | 0.962 ± 0.022 | 0.936 ± 0.062 | 0.936 ± 0.035 | 0.92 ± 0.072 | 0.995 ± 0.08 | 0.919 ± 0.09 | 0.965 ± 0.12 | 0.865 ± 0.04 | 0.881 ± 0.14 | 0.84 ± 0.1 | 0.902 ± 0.042 | 0.823 ± 0.12 | 0.872 ± 0.074 | 0.761 ± 0.12 | 0.73 ± 0.065
HCC1806 BREAST | 1.05 ± 0.14 | 1.07 ± 0.086 | 1.12 ± 0.08 | 1.1 ± 0.035 | 0.959 ± 0.067 | 0.949 ± 0.12 | 0.699 ± 0.065 | 0.477 ± 0.024 | 0.771 ± 0.058 | 0.824 ± 0.1 | 0.682 ± 0.035 | 0.56 ± 0.0059 | 0.397 ± 0.0062 | 0.2757 ± 0.0015 | 0.108 ± 0.0021 | 0.0743 ± 0.0095
HCC1954 BREAST | 0.9487 ± 0.0025 | 0.93 ± 0.092 | 0.875 ± 0.086 | 1.03 ± 0.11 | 0.742 ± 0.01 | 0.771 ± 0.051 | 0.604 ± 0.09 | 0.504 ± 0.12 | 0.4128 ± 0.0025 | 0.433 ± 0.01 | 0.42 ± 0.043 | 0.456 ± 0.0085 | 0.467 ± 0.037 | 0.415 ± 0.064 | 0.364 ± 0.061 | 0.417 ± 0.01
HCT15 LARGE INTESTINE | 1.05 ± 0.017 | 1.04 ± 0.061 | 1.05 ± 0.05 | 1.05 ± 0.052 | 1 ± 0.066 | 1.01 ± 0.041 | 1.05 ± 0.052 | 1.08 ± 0.017 | 0.883 ± 0.065 | 0.887 ± 0.025 | 0.852 ± 0.011 | 0.85 ± 0.019 | 0.805 ± 0.022 | 0.66 ± 0.044 | 0.15 ± 0.019 | 0.104 ± 0.0095
HELA CERVIX | 1.1 ± 0.048 | 1.06 ± 0.049 | 1.115 ± 0.011 | 1.06 ± 0.039 | 1.13 ± 0.03 | 1.11 ± 0.021 | 1.21 ± 0.029 | 1.22 ± 0.072 | 0.972 ± 0.026 | 0.932 ± 0.02 | 0.958 ± 0.024 | 0.963 ± 0.027 | 1.035 ± 0.0087 | 1.07 ± 0.061 | 0.803 ± 0.032 | 0.6 ± 0.062
HOS BONE | 1.03 ± 0.041 | 1.02 ± 0.032 | 1.06 ± 0.027 | 1.06 ± 0.05 | 1.02 ± 0.039 | 1.01 ± 0.022 | 0.988 ± 0.044 | 0.901 ± 0.048 | 0.936 ± 0.0079 | 0.926 ± 0.023 | 0.9497 ± 0.0038 | 0.94 ± 0.017 | 1 ± 0.035 | 0.984 ± 0.014 | 0.589 ± 0.043 | 0.291 ± 0.039
HOSMNG BONE | 1 ± 0.065 | 0.944 ± 0.013 | 0.982 ± 0.051 | 0.978 ± 0.044 | 1.03 ± 0.011 | 0.9887 ± 0.0031 | 1.01 ± 0.043 | 0.998 ± 0.056 | 0.966 ± 0.025 | 0.983 ± 0.011 | 0.992 ± 0.015 | 1.01 ± 0.021 | 1.05 ± 0.048 | 1.03 ± 0.083 | 0.984 ± 0.029 | 0.845 ± 0.035
HSSYII SYNOVIAL | 0.975 ± 0.027 | 0.956 ± 0.032 | 0.931 ± 0.015 | 0.99 ± 0.041 | 0.891 ± 0.011 | 0.867 ± 0.043 | 0.84 ± 0.055 | 0.74 ± 0.041 | 0.797 ± 0.068 | 0.872 ± 0.045 | 0.768 ± 0.045 | 0.788 ± 0.017 | 0.6562 ± 0.0056 | 0.572 ± 0.029 | 0.224 ± 0.014 | 0.14 ± 0.0027
HT1080 SOFT TISSUE | 1.01 ± 0.026 | 1.04 ± 0.027 | 1.01 ± 0.04 | 1.02 ± 0.022 | 0.987 ± 0.054 | 1.01 ± 0.051 | 0.962 ± 0.016 | 0.846 ± 0.029 | 1.001 ± 0.0036 | 0.965 ± 0.044 | 0.935 ± 0.018 | 0.886 ± 0.024 | 0.798 ± 0.071 | 0.7 ± 0.046 | 0.402 ± 0.0042 | 0.324 ± 0.012
HU09 BONE | 0.994 ± 0.096 | 0.996 ± 0.1 | 1.13 ± 0.061 | 1.1 ± 0.14 | 1.03 ± 0.12 | 1.42 ± 0.58 | 0.778 ± 0.065 | 0.763 ± 0.14 | 0.805 ± 0.015 | 0.923 ± 0.031 | 0.9 ± 0.084 | 0.831 ± 0.058 | 0.883 ± 0.083 | 0.761 ± 0.037 | 0.381 ± 0.013 | 0.246 ± 0.028
HUO3N1 BONE | 1.01 ± 0.026 | 1 ± 0.031 | 1.05 ± 0.041 | 1.04 ± 0.041 | 1.04 ± 0.023 | 1.03 ± 0.025 | 0.979 ± 0.027 | 0.907 ± 0.026 | 0.898 ± 0.053 | 0.897 ± 0.0087 | 0.924 ± 0.016 | 0.908 ± 0.044 | 0.957 ± 0.031 | 0.892 ± 0.059 | 0.676 ± 0.0053 | 0.532 ± 0.025
JIMT1 BREAST | 0.91 ± 0.034 | 0.924 ± 0.022 | 0.936 ± 0.02 | 0.952 ± 0.031 | 0.956 ± 0.013 | 1 ± 0.038 | 0.971 ± 0.03 | 0.887 ± 0.024 | 0.823 ± 0.056 | 0.82 ± 0.043 | 0.842 ± 0.019 | 0.874 ± 0.048 | 0.952 ± 0.059 | 0.927 ± 0.028 | 0.825 ± 0.058 | 0.698 ± 0.059
JURKAT HAEMATOPOIETIC AND LYMPHOID TISSUE | 1.1 ± 0.013 | 1.123 ± 0.0098 | 1.08 ± 0.016 | 1.09 ± 0.026 | 1.05 ± 0.026 | 1.03 ± 0.029 | 1.01 ± 0.018 | 0.96 ± 0.029 | 1.01 ± 0.02 | 1.02 ± 0.016 | 0.986 ± 0.016 | 0.977 ± 0.012 | 0.916 ± 0.017 | 0.786 ± 0.026 | 0.232 ± 0.0061 | 0.122 ± 0.0062
KPD BONE | 0.979 ± 0.039 | 0.946 ± 0.05 | 1.02 ± 0.047 | 1.01 ± 0.068 | 1 ± 0.092 | 1.01 ± 0.049 | 0.865 ± 0.02 | 0.7 ± 0.034 | 0.862 ± 0.01 | 0.828 ± 0.062 | 0.875 ± 0.021 | 0.891 ± 0.034 | 0.767 ± 0.018 | 0.699 ± 0.018 | 0.495 ± 0.04 | 0.407 ± 0.014
LM7 BONE | 0.909 ± 0.046 | 0.946 ± 0.031 | 0.94 ± 0.048 | 1.09 ± 0.064 | 0.947 ± 0.052 | 0.896 ± 0.033 | 0.798 ± 0.063 | 0.78 ± 0.097 | 0.745 ± 0.055 | 0.756 ± 0.039 | 0.834 ± 0.029 | 0.823 ± 0.091 | 0.91 ± 0.048 | 0.767 ± 0.05 | 0.402 ± 0.022 | 0.289 ± 0.044
LNCAP PROSTATE | 1.08 ± 0.12 | 1.12 ± 0.15 | 1.11 ± 0.11 | 1.12 ± 0.16 | 1.4 ± 0.029 | 1.43 ± 0.095 | 1.4 ± 0.11 | 1.21 ± 0.15 | 1.18 ± 0.11 | 1.04 ± 0.038 | 1.14 ± 0.085 | 0.96 ± 0.15 | 1.03 ± 0.061 | 0.868 ± 0.076 | 0.847 ± 0.074 | 0.595 ± 0.072
MCF7 BREAST | 0.946 ± 0.053 | 0.874 ± 0.035 | 0.902 ± 0.033 | 0.888 ± 0.012 | 0.99 ± 0.058 | 0.955 ± 0.03 | 0.933 ± 0.019 | 1 ± 0.06 | 0.816 ± 0.033 | 0.821 ± 0.015 | 0.819 ± 0.007 | 0.779 ± 0.05 | 0.829 ± 0.037 | 0.847 ± 0.028 | 0.787 ± 0.0039 | 0.7254 ± 0.0065
MDAMB134 BREAST | 1.04 ± 0.082 | 0.967 ± 0.073 | 0.955 ± 0.11 | 0.926 ± 0.04 | 0.678 ± 0.16 | 0.714 ± 0.052 | 0.7305 ± 0.0021 | 0.63 ± 0.049 | 0.714 ± 0.15 | 0.771 ± 0.044 | 0.844 ± 0.011 | 0.724 ± 0.047 | 0.804 ± 0.04 | 0.862 ± 0.12 | 0.733 ± 0.091 | 0.753 ± 0.088
MDAMB157 BREAST | 0.905 ± 0.074 | 0.972 ± 0.025 | 1.01 ± 0.057 | 1.09 ± 0.059 | 1 ± 0.028 | 1.05 ± 0.046 | 0.896 ± 0.022 | 0.89 ± 0.093 | 0.89 ± 0.033 | 0.915 ± 0.045 | 0.788 ± 0.033 | 0.863 ± 0.025 | 0.815 ± 0.047 | 0.736 ± 0.07 | 0.476 ± 0.016 | 0.288 ± 0.056
MDAMB231 BREAST | 0.965 ± 0.015 | 0.955 ± 0.016 | 0.993 ± 0.035 | 0.988 ± 0.023 | 0.955 ± 0.016 | 0.981 ± 0.021 | 0.73 ± 0.027 | 0.617 ± 0.025 | 0.961 ± 0.017 | 0.958 ± 0.018 | 0.978 ± 0.014 | 0.935 ± 0.019 | 0.887 ± 0.028 | 0.845 ± 0.021 | 0.642 ± 0.029 | 0.504 ± 0.01
